Measured values from patent US20260242438A1 (INSTITUTE OF MATERIA MEDICA, CHINESE ACADEMY OF MEDICAL …, priority 2022, published 2026).
Where a SMILES comes first, the peptide text is derived from it. Bridges are numbered along the chain shown (N, C = ends).

Target: chymotrypsin (Bos taurus, UniProt P00766)
Experiment: Determination of enzyme inhibitory activity against chymotrypsin (substrate AAPFpNA, OD 405 nm)
Type: biochemical
Details: for IC50: chymotrypsin 30 nM, AAPFpNA 0.5 mM, pH 7.8, 37° C.; for remaining activity at 0.0001 µM: peptide 0.0001 μM; for remaining activity at 0.01 µM: peptide 0.01 μM; for remaining activity at 0.1 µM: peptide 0.1 μM; for remaining activity at 0.5 µM: peptide 0.5 μM; for remaining activity at 1 µM: peptide 1 μM; for remaining activity at 10 µM: peptide 10 μM; for remaining activity at 100 µM: peptide 100 μM; for remaining activity at 0.001 µM: peptide 0.001 μM; for remaining activity at 0.2 µM: peptide 0.2 μM; for remaining activity at 1000 µM: peptide 1000 μM; for remaining activity at 0.4 µM: peptide 0.4 μM; for remaining activity at 0.8 µM: peptide 0.8 μM
Protocol: The substrates N-succinyl-Ala-Ala-Pro-Phe-p-nitroaniline (AAPFpNA) is used in competitive binding reaction to determine the inhibitory activities against α -chymotrypsin. Experiments for a-chymotrypsin was measured in 20 mM CaCl2, 50 mM Tris-HCl buffer (pH 7.8). The concentration of the peptide was measured using optical density (OD) at 280 nm. The Michaelis constant (Km) of the enzyme hydrolysis substrate is calculated from the initial rate of substrate hydrolysis at 405 nm. The absorbance value of the substrate was measured at 405 nm after complete hydrolysis. All data were processed using nonlinear regression.
(1) Added a total 190 μL of reaction buffer (20 mM CaCl2, 50 mM Tris-HCl (pH 7.8)), different concentrations of anti-chymorypsin peptides (CHs) into the pre-cold 96 well plate, followed by preheating at 37° C. for 5 min and centrifugated at 500 rpm for 1 min and allowed to stand for 4 minutes. Then added 8 μL of 750 nM chymotrypsin and incubated at 37° C. for 10 min, and centrifugated at 500 rpm for 1 min and allowed to stand for 9 minutes. Finally, added 2 μL of 50 mM AAPFpNA, and mixed by centrifugation at 500 rpm for 1 min. The plate was incubated at 37° C. for 90 min, and the absorbance value at 405 nm was measured. Three repetitions were made, and only reaction buffer and substrate were added in the blank control as the minimum absorption value (Min OD 405 nm); Only reaction buffer, enzyme and substrate were added in the negative control as the maximum absorption value (Max OD 405 nm).
(2) In the 200 μL of reaction system, the final concentrations of chymotrypsin and AAPFpNA were 30 nM and 0.5 mM, respectively.
Plotted the residual activity of enzyme with […] to obtain the half inhibitory concentration (IC50) of anti-chymorypsin peptides (CHs). Then, substituted it into the formula […]/(1+S/Km) (S, IC50, and Km were substrate concentration, half inhibitory concentration, and Michaelis constant, respectively) to obtain the inhibition constant Ki of anti-chymorypsin peptides (CHs).

[1] = read-out: Residual activity of chymotrypsin

Compound | Ki [nM] | IC50 [nM] | remaining activity at 0.0001 µM [1] [%] | remaining activity at 0.01 µM [1] [%] | remaining activity at 0.1 µM [1] [%] | remaining activity at 1 µM [1] [%] | remaining activity at 10 µM [1] [%] | remaining activity at 100 µM [1] [%] | remaining activity at 0.001 µM [1] [%] | remaining activity at 0.2 µM [1] [%] | remaining activity at 0.4 µM [1] [%] | other results
CC[C@H](C)[C@@H]1NC(=O)[C@@H]2CCCN2C(=O)[C@@H]2CCCN2C(=O)[C@H]([C@@H](C)CC)NC(=O)[C@H](CO)NC(=O)[C@H](Cc2ccc(O)cc2)NC(=O)[C@H]([C@@H](C)O)NC(=O)[C@@H](NC(=O)[C@@H](NC(=O)CN)[C@@H](C)O)CSSC[C@@H](C(=O)N[C@@H](CC(N)=O)C(=O)O)NC1=O [CH62] (H-GTCTYSIPPICN-OH; disulfide 3-11; C-terminus assumed) | 60 | 150 | 100.9 ± 0.8 | 102 ± 2.2 | 56.4 ± 2 | 14.2 ± 5.9 | 0.8 ± 0.1 | 0.1 | – | – | – | remaining activity at 0.05 µM (peptide 0.05 μM, read-out: Residual activity of chymotrypsin): 83.4 ± 8.3%; remaining activity at 0.25 µM (peptide 0.25 μM, read-out: Residual activity of chymotrypsin): 40.9 ± 6.8%; remaining activity at 0.5 µM [1]: 25.1 ± 1.5%
CC[C@H](C)[C@@H]1NC(=O)[C@H](CO)NC(=O)[C@H](Cc2ccc(O)cc2)NC(=O)[C@H]([C@@H](C)O)NC(=O)[C@@H](NC(=O)[C@H](C)N)CSSC[C@@H](C(=O)N[C@@H](Cc2ccccc2)C(=O)O)NC(=O)[C@H](CCCCN)NC(=O)[C@H](C)NC(=O)[C@@H]2CCCN2C1=O [CH18] (H-ACTYSIPAKCF-OH; disulfide 2-10; C-terminus assumed) | 200 | 470 | – | 102 ± 3.7 | 102 ± 2.4 | – | 3.4 ± 0.5 | 0.3 ± 0.1 | 103.6 ± 0.2 | 90.3 ± 4.1 | – | remaining activity at 0.5 µM [1]: 49.4 ± 3.7%; remaining activity at 2.5 µM (peptide 2.5 μM, read-out: Residual activity of chymotrypsin): 3.7 ± 0.5%; remaining activity at 1000 µM [1]: 0.1 ± 0.1%
CC[C@H](C)[C@@H]1NC(=O)[C@H](CO)NC(=O)[C@H](Cc2ccc(O)cc2)NC(=O)[C@H]([C@@H](C)O)NC(=O)[C@@H](NC(=O)[C@@H](N)Cc2ccccc2)CSSC[C@@H](C(=O)N[C@@H](Cc2ccc(O)cc2)C(=O)NCC(=O)O)NC(=O)[C@H](CCC(N)=O)NC(=O)[C@@H]2CCCN2C(=O)[C@@H]2CCCN2C1=O [CH10] (H-FCTYSIPPQCYG-OH; disulfide 2-10; C-terminus assumed) | 30 | 60 | 101 | 95.1 ± 1.2 | 35.4 ± 7.2 | 3.8 ± 0.4 | 0.1 ± 0.1 | -0.1 | – | 24.9 ± 3.5 | 18 ± 4.9 | –
CC[C@H](C)[C@@H]1NC(=O)[C@@H]2CCCN2C(=O)[C@@H]2CCCN2C(=O)[C@H]([C@@H](C)CC)NC(=O)[C@H](CO)NC(=O)[C@H](Cc2ccc(O)cc2)NC(=O)[C@H]([C@@H](C)O)NC(=O)[C@@H](NC(=O)[C@@H](N)CCCCN)CSSC[C@@H](C(=O)N[C@@H](Cc2ccccc2)C(=O)O)NC1=O [CH64] (H-KCTYSIPPICF-OH; disulfide 2-10; C-terminus assumed) | 400 | 930 | – | – | – | – | – | – | – | – | – | –
CC[C@H](C)[C@@H]1NC(=O)[C@H](CO)NC(=O)[C@H](Cc2ccc(O)cc2)NC(=O)[C@H]([C@@H](C)O)NC(=O)[C@@H](NC(=O)[C@@H](N)Cc2ccccc2)CSSC[C@@H](C(=O)N[C@@H](CCCNC(=N)N)C(=O)O)NC(=O)[C@H](CCC(N)=O)NC(=O)[C@@H]2CCCN2C(=O)[C@@H]2CCCN2C1=O [CH35] (H-FCTYSIPPQCR-OH; disulfide 2-10; C-terminus assumed) | 190 | 450 | – | 101 ± 1.2 | 101 ± 2.6 | 16.6 ± 4.7 | 2.6 ± 0.2 | 0 | 100.8 ± 0.9 | 78.9 ± 2.9 | 58.8 ± 3.4 | remaining activity at 0.8 µM [1]: 27.3 ± 2.9%; inhibitory activity reduced (fold) (relative to CH10): ~7 times
CC[C@H](C)[C@@H]1NC(=O)[C@@H]2CCCN2C(=O)[C@@H]2CCCN2C(=O)[C@H]([C@@H](C)CC)NC(=O)[C@H](CO)NC(=O)[C@H](Cc2ccccc2)NC(=O)[C@H]([C@@H](C)O)NC(=O)[C@@H](NC(=O)[C@@H](NC(=O)CN)[C@@H](C)O)CSSC[C@@H](C(=O)N[C@@H](CC(N)=O)C(=O)O)NC1=O [CH26] (H-GTCTFSIPPICN-OH; disulfide 3-11; C-terminus assumed) | 230 | 540 | – | – | 95.1 ± 2.1 | 27.8 ± 2.5 | 2.2 ± 0.2 | 0.3 ± 0.1 | 101 ± 1.6 | 83.1 ± 1.1 | 63.2 ± 4.5 | remaining activity at 5 µM (peptide 5 μM, read-out: Residual activity of chymotrypsin): 7 ± 0.5%; remaining activity at 1000 µM [1]: 0.1%
CC[C@H](C)[C@@H]1NC(=O)[C@@H]2CCCN2C(=O)[C@@H]2CCCN2C(=O)[C@H]([C@@H](C)CC)NC(=O)[C@H](CO)NC(=O)[C@H](Cc2ccccc2)NC(=O)[C@H]([C@@H](C)O)NC(=O)[C@H](C)NC(=O)[C@H](CCCNC(=N)N)NC(=O)CNC(=O)[C@@H](N)CSSC[C@@H](C(=O)N[C@@H](Cc2ccccc2)C(=O)O)NC1=O [CH71] (H-CGRATFSIPPICF-OH; disulfide 1-12; C-terminus assumed) | 180 | 410 | – | 100.6 ± 1 | 100.3 ± 0.5 | 20.7 ± 1.3 | 0.8 ± 0.2 | 0.1 ± 0.1 | 101.4 ± 0.6 | 81.7 ± 3.3 | 49.9 ± 6.6 | remaining activity at 0.8 µM [1]: 23.6 ± 1.5%
CC[C@H](C)[C@@H]1NC(=O)[C@H](CO)NC(=O)[C@H](Cc2ccccc2)NC(=O)[C@H]([C@@H](C)O)NC(=O)[C@@H](NC(=O)[C@@H](N)Cc2ccccc2)CSSC[C@@H](C(=O)N[C@@H](Cc2ccc(O)cc2)C(=O)NCC(=O)O)NC(=O)[C@H](CCC(N)=O)NC(=O)[C@@H]2CCCN2C(=O)[C@@H]2CCCN2C1=O [CH5] (H-FCTFSIPPQCYG-OH; disulfide 2-10; C-terminus assumed) | 80 | 190 | 96.7 ± 9.3 | 102 ± 3.7 | – | 11.3 ± 1.5 | 0.3 | 0.3 ± 0.2 | 113 ± 2.4 | – | – | remaining activity at 0.15 µM (peptide 0.15 μM, read-out: Residual activity of chymotrypsin): 58.3 ± 2.3%; remaining activity at 0.3 µM (peptide 0.3 μM, read-out: Residual activity of chymotrypsin): 41.9 ± 5.7%; remaining activity at 0.6 µM (peptide 0.6 μM, read-out: Residual activity of chymotrypsin): 19 ± 0.8%
CC[C@H](C)[C@@H]1NC(=O)[C@@H]2CCCN2C(=O)[C@@H]2CCCN2C(=O)[C@H]([C@@H](C)CC)NC(=O)[C@H](CO)NC(=O)[C@H](Cc2ccc(O)cc2)NC(=O)[C@H]([C@@H](C)O)NC(=O)[C@H](C)NC(=O)[C@H](CCCNC(=N)N)NC(=O)CNC(=O)[C@@H](N)CSSC[C@@H](C(=O)N[C@@H](Cc2ccccc2)C(=O)N2CCC[C@H]2C(=O)O)NC1=O [CH66] (H-CGRATYSIPPICFP-OH; disulfide 1-12; C-terminus assumed) | 280 | 650 | – | – | – | – | – | – | – | – | – | –
CC[C@H](C)[C@@H]1NC(=O)[C@@H]2CCCN2C(=O)[C@@H]2CCCN2C(=O)[C@H]([C@@H](C)CC)NC(=O)[C@H](CO)NC(=O)[C@H](Cc2ccc(O)cc2)NC(=O)[C@H]([C@@H](C)O)NC(=O)[C@@H](NC(=O)[C@H](CCCNC(=N)N)NC(=O)CN)CSSC[C@@H](C(=O)N[C@@H](Cc2ccccc2)C(=O)O)NC1=O [CH57] (H-GRCTYSIPPICF-OH; disulfide 3-11; C-terminus assumed) | 20 | 40 | 99 ± 1.3 | 98 ± 5.1 | – | 0.9 ± 0.3 | -0.2 ± 0.2 | – | 100.2 ± 0.3 | – | – | remaining activity at 0.02 µM (peptide 0.02 μM, read-out: Residual activity of chymotrypsin): 66 ± 7.5%; remaining activity at 0.04 µM (peptide 0.04 μM, read-out: Residual activity of chymotrypsin): 48.4 ± 5.8%; remaining activity at 0.06 µM (peptide 0.06 μM, read-out: Residual activity of chymotrypsin): 38.1 ± 7.9%; remaining activity at 0.08 µM (peptide 0.08 μM, read-out: Residual activity of chymotrypsin): 19.1 ± 4.6%
CC[C@H](C)[C@@H]1NC(=O)[C@@H]2CCCN2C(=O)[C@@H]2CCCN2C(=O)[C@H]([C@@H](C)CC)NC(=O)[C@H](CO)NC(=O)[C@H](Cc2ccccc2)NC(=O)[C@H]([C@@H](C)O)NC(=O)[C@@H](NC(=O)[C@@H](NC(=O)CN)[C@@H](C)O)CSSC[C@@H](C(=O)N[C@@H](CC(N)=O)C(=O)N2CCC[C@H]2C(=O)N[C@@H](CC(N)=O)C(=O)O)NC1=O [CH59] (H-GTCTFSIPPICNPN-OH; disulfide 3-11; C-terminus assumed) | 80 | 180 | – | – | – | – | – | – | – | – | – | –
